In brackets after ≈: the same amount, converted by molar mass. Read-outs that look alike come from different tables or passages of the source.
How the values were obtained:
[1] = test system: MSSA Newman; test: MIC test in TSB medium with MTT staining, MSSA Newman; assay type: cell-based, Staphylococcus aureus; details: Staphylococcus aureus, TSB, 37° C.
Description: MIC Test (Methicillin Susceptible Staphylococcus aureus (MSSA Newman))
Overnight cultures of MSSA Newman were grown up in TSB medium at 37° C. The cultures obtained were normalized with TSB to OD600=0.6 and diluted 100-fold. 1.5 μL of a dilution series of Example Compounds in DMSO (100×, in duplicate), and the diluted bacterial culture (150 μL) was added to wells of a sterile, clear 96 well plate and incubated at 37° C.

[2] = test system: S. aureus ATCC 29213; test: MIC test according to CLSI M7-A9, S. aureus ATCC 29213; assay type: cell-based; details: Staphylococcus aureus, ATCC29213; CLSI M7-A9, CAMHB, 24 h (Table 2); read-out: S. aureus ATCC 29213 MIC at 24 h
Procedure, shortened: (§1)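 Per CLSI M7-A9, DMSO stocks diluted in cation-adjusted Mueller Hinton broth, plates incubated 24 h at 37 °C in air. MIC is the lowest concentration giving complete inhibition of visible growth, read visually and at 600 nm.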

[3] = test system: S. aureus ATCC 43300; test: MIC test according to CLSI M7-A9, S. aureus ATCC 43300; assay type: cell-based; details: Staphylococcus aureus, ATCC43300; CLSI M7-A9, CAMHB, 24 h (Table 2); read-out: S. aureus ATCC 43300 MIC at 24 h
Procedure, shortened: as §1

[4] = MTT staining after 7 h, read-out: MSSA Newman MIC at 7 h
[5] = MTT staining after 24 h, read-out: MSSA Newman MIC at 24 h

For Cc1cc(OCCCNc2nc(-c3ccc(C(C)(C)C)cc3)nc3cc(=O)[nH]n23)ccc1Cl [Example 14, 2-(4-tert-butylphenyl)-4-{[3-(4-chloro-3-methylphenoxy)propyl]amino}-6H,7H-pyrazolo[1,5-a][1,3,5]triazin-7-one], the MIC [1, 4] was 3.3 µg/mL (≈ 7.08 µM), the MIC [1, 5] was 3.3 µg/mL (≈ 7.08 µM) and the MIC [2] was 4 µg/mL (≈ 8.58 µM). The MIC [3] was 4 µg/mL (≈ 8.58 µM).

Cc1ccnc(C)c1OCCCNc1nc(-c2ccc(C(C)(C)C)cc2)nc2cc(=O)[nH]n12 [Example 53, 2-(4-tert-butylphenyl)-4-({3-[(2,4-dimethylpyridin-3-yl)oxy]propyl}amino)-6H,7H-pyrazolo[1,5-a][1,3,5]triazin-7-one] was tested, and the MIC [1, 4] was > 100 µg/mL, the MIC [1, 5] was > 100 µg/mL and the MIC [2] was > 64 µg/mL. For the same molecule, the MIC [3] was 8 µg/mL (≈ 17.9 µM).

CC(C)(C)c1ccc(-c2nc3cc(=O)[nH]n3c(=S)[nH]2)cc1 [Example 1, 2-(4-tert-butylphenyl)-4-sulfanylidene-3H,4H,6H,7H-pyrazolo[1,5-a][1,3,5]triazin-7-one] was tested, and the MIC [1, 4] was 12.5 µg/mL (≈ 41.6 µM), the MIC [1, 5] was 12.5 µg/mL (≈ 41.6 µM) and the MIC [2] was 16 µg/mL (≈ 53.3 µM). The MIC [3] was 16 µg/mL (≈ 53.3 µM).

With Cc1ccc(OCCCNc2nc(-c3ccc(C(C)(C)C)cc3)nc3cc(=O)[nH]n23)cc1C [Example 49, 2-(4-tert-butylphenyl)-4-{[3-(3,4-dimethylphenoxy)propyl]amino}-6H,7H-pyrazolo[1,5-a][1,3,5]triazin-7-one] the MIC [1, 4] was 3.1 µg/mL (≈ 6.96 µM), the MIC [1, 5] was 6.2 µg/mL (≈ 13.9 µM) and the MIC [2] was 32 µg/mL (≈ 71.8 µM). It also gave an MIC [3] of 16 µg/mL (≈ 35.9 µM).

Cc1ccc(-c2nc(NCCCNc3ccc(Cl)c(C)c3)n3[nH]c(=O)cc3n2)cc1 [Example 68, 4-({3-[(4-chloro-3-methylphenyl)amino]propyl}amino)-2-(4-methylphenyl)-6H,7H-pyrazolo[1,5-a][1,3,5]triazin-7-one] showed an MIC [1, 4] of 1.6 µg/mL (≈ 3.78 µM), an MIC [1, 5] of 3.1 µg/mL (≈ 7.33 µM) and an MIC [2] of 16 µg/mL (≈ 37.8 µM). The MIC [3] was 8 µg/mL (≈ 18.9 µM).

In the case of COCCCNc1nc(-c2ccc(C(C)(C)C)cc2)nc2cc(=O)[nH]n12 [Example 27, 2-(4-tert-butylphenyl)-4-[(3-methoxypropyl)amino]-6H,7H-pyrazolo[1,5-a][1,3,5]triazin-7-one], the MIC [1, 4] is reported as 50 µg/mL (≈ 141 µM), the MIC [1, 5] is reported as 100 µg/mL (≈ 281 µM) and the MIC [2] is reported as > 32 µg/mL. The MIC [3] was > 32 µg/mL.

In the case of CC(C)(C)c1ccc(-c2nc(NCCCCc3ccccc3)n3[nH]c(=O)cc3n2)cc1 [Example 29, 2-(4-tert-butylphenyl)-4-[(4-phenylbutyl)amino]-6H,7H-pyrazolo[1,5-a][1,3,5]triazin-7-one], the MIC [1, 4] is reported as 1.6 µg/mL (≈ 3.85 µM), the MIC [1, 5] is reported as 3.1 µg/mL (≈ 7.46 µM) and the MIC [2] is reported as 8 µg/mL (≈ 19.3 µM). The MIC [3] was 16 µg/mL (≈ 38.5 µM).

CCCC(C)Nc1nc(-c2ccc(C(C)(C)C)cc2)nc2cc(=O)[nH]n12 (centres unmarked) [Example 28, 2-(4-tert-butylphenyl)-4-[(pentan-2-yl)amino]-6H,7H-pyrazolo[1,5-a][1,3,5]triazin-7-one] showed an MIC [1, 4] of 3.1 µg/mL (≈ 8.77 µM), an MIC [1, 5] of 6.2 µg/mL (≈ 17.5 µM) and an MIC [2] of 16 µg/mL (≈ 45.3 µM). For the same molecule, the MIC [3] was 16 µg/mL (≈ 45.3 µM).

With COc1ccc(CNc2nc(-c3ccc(C(C)(C)C)cc3)nc3cc(=O)[nH]n23)cc1 [Example 15, 2-(4-tert-butylphenyl)-4-{[(4-methoxyphenyl)methyl]amino}-6H,7H-pyrazolo[1,5-a][1,3,5]triazin-7-one] the MIC [1, 4] was 3.1 µg/mL (≈ 7.68 µM), the MIC [1, 5] was 12.5 µg/mL (≈ 31 µM) and the MIC [2] was 8 µg/mL (≈ 19.8 µM). The MIC [3] was 8 µg/mL (≈ 19.8 µM).

In the case of Cc1cc(NCCCNc2nc(-c3ccc(C(C)(C)C)cc3)nc3cc(=O)[nH]n23)ccc1Cl [Example 47, 2-(4-tert-butylphenyl)-4-({3-[(4-chloro-3-methylphenyl)amino]propyl}amino)-6H,7H-pyrazolo[1,5-a][1,3,5]triazin-7-one], the MIC [1, 4] is reported as 3.1 µg/mL (≈ 6.67 µM), the MIC [1, 5] is reported as 3.1 µg/mL (≈ 6.67 µM) and the MIC [2] is reported as 2 µg/mL (≈ 4.3 µM). It also gave an MIC [3] of 4 µg/mL (≈ 8.6 µM).

With Cc1cc(OCCNc2nc(-c3ccc(C(C)(C)C)cc3)nc3cc(=O)[nH]n23)ccc1Cl [Example 46, 2-(4-tert-butylphenyl)-4-{[2-(4-chloro-3-methylphenoxy)ethyl]amino}-6H,7H-pyrazolo[1,5-a][1,3,5]triazin-7-one] the MIC [1, 4] was 12.5 µg/mL (≈ 27.7 µM) and the MIC [1, 5] was 12.5 µg/mL (≈ 27.7 µM).

With CC(C)(C)c1ccc(-c2nc(O)n3[nH]c(=O)cc3n2)cc1 [Example 38, 2-(4-tert-butylphenyl)-4-hydroxy-6H,7H-pyrazolo[1,5-a][1,3,5]triazin-7-one] the MIC [1, 4] was 12.5 µg/mL (≈ 44 µM) and the MIC [1, 5] was 12.5 µg/mL (≈ 44 µM).

— patent US20180162862A1 (President and Fellows of Harvard College, priority 2015, published 2018)
